Reference: patent publication US20070197509A1, “Compositions and methods for modulating gated ion channels” (PainCeptor Pharma Corporation, priority 2005, published 2007)
“Also recorded” adds a separate entry of the source.

Key:
[1] = test system: formalin-induced pain; experiment: Formalin test, model of acute tonic pain; format: in vivo; settings: rat
Description: Male Sprague-Dawley rats are housed together in groups of three animals under standard conditions with unrestricted access to food and water. All experiments are conducted according to the ethical guidelines for investigations of experimental pain in conscious animals (Zimmerman, 1983)
Assessment of formalin-induced flinching behavior in normal, uninjured rats (body weight 150-180 g) was made with the use of an Automated Nociception Analyser (University of California, San Diego, USA). Briefly, this involved placing a small C-shaped metal band (10 mm wide×27 mm long) on the hindpaw of the rat to be tested. The rats (four rats were included in each testing session) were then placed in a cylindrical plexiglass observation chamber (diameter 30.5 cm and height 15 cm) for 20 min for adaptation purposes prior to being administered drug or vehicle according to the experimental paradigm being followed. […] Rats were then returned to their separate observation chambers, each of which were in turn situated upon an enclosed detection device consisting of two electromagnetic coils designed to produce an electromagnetic field in which movement of the metal band could be detected. […] A sampling interval of 1 min was used and on the basis of the resulting response patterns 5 phases of nociceptive behaviour were identified and scored: first phase (P1; 0-5 min), interphase (Int; 6-15 min), second phase (P2; […]), phase 2A (P2A; 16-40 min) and phase 2B (P2B; 41-60 min).
Nociceptive behavior was also determined manually every 5 min by measuring the amount of time spent in each of four behavioral categories: 0, treatment of the injected hindpaw is indistinguishable from that of the contralateral paw; 1, the injected paw has little or no weight placed on it; 2, the injected paw is elevated and is not in contact with any surface; 3, the injected paw is licked, bitten, or shaken. A weighted nociceptive score, ranging from 0 to 3 was calculated by multiplying the time spent in each category by the category weight, summing these products, and dividing by the total time for each 5 min block of time. […]

[2] = test system: T1, hASIC3 (h3) and/or hASIC1a (h1a); experiment: FlexStation/FLIPR assay, channel not marked in the cell; format: cell-based, human; settings: Table H, cells without channel mark; HEK293; read-out: EC50 (μM) Flex/FLIPR
T1 construct: EC50 (μM) in one experiment; HEK293
Text: (§1) The MES-induced peak calcium response (or change in membrane potential), in the presence of test substance, is expressed relative to the MES response alone. Test substances that block the MES-induced calcium response (or change in membrane potential) are re-tested in triplicates. Confirmed hits are picked for further characterization by performing full dose-response curves to determine potency of each hit compound as represented by the IC50 values (i.e., the concentration of the test substance which inhibits 50% of the MES-induced calcium and/or membrane potentiation response; see, for example, FIG. 1).
(§2) The data shown in Table H was acquired using the FlexStation assay described in Example 1 on HEK293 cells expressing hASIC3 (h3) and/or hASIC1a (h1a).

[3] = target: T2, hASIC3 (Homo sapiens, UniProt Q9UHC3); experiment: FlexStation assay on HEK293 cells expressing hASIC3; format: cell-based; design: expressed in transfected cells; host or cells: HEK293 cells; settings: FlexStation (Flex), Tables A-F; read-out: Biological Data (IC50 uM) h3 (Flex)
T2 sequence (Q9UHC3 1-531): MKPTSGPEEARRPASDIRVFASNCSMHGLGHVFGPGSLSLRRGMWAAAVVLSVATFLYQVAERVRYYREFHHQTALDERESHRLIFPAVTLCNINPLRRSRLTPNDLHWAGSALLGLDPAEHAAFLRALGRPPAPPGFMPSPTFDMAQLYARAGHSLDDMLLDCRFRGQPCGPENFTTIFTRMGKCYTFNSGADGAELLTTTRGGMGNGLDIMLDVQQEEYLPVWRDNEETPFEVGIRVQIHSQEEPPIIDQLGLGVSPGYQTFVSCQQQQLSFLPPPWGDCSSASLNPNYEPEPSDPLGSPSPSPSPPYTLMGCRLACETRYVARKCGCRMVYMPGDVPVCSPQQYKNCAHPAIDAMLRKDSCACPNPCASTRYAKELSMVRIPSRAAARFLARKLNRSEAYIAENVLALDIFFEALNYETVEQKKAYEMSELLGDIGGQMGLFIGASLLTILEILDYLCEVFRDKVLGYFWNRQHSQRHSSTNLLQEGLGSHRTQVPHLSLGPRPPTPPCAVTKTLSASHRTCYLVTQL
Description: A vial of FMP dye (Molecular Devices) is resuspended in 10.5 ml of assay buffer (48.3 mM NaCl, 93 mM NMDG, 5 mM KCl, 5 mM CaCl2, 1 mM MgCl2, 10 mM HEPES, pH 7.4). The culture medium is aspirated from the wells, and 100 μl of the FMP loading solution is added to each well. The cells are incubated at 37° C. for 30 min.
After the loading period, the loading solution is left on the cells and the membrane potential-induced fluorescence is measured in FLIPR™ or FlexStation™ (Molecular Devices, USA), or any other suitable equipment known to the skilled in the art.
For cells co-expressing ASIC1a and ASIC3 channels (e.g. HEK293 cells), membrane potential dye (FMP dye) is used and the FlexStation settings are as above.
as §1, §2

| EC50 [2] [µM] | IC50 [3] [µM] | Structure (SMILES) | formalin-induced pain, flinching / total pain score (FIG. 5) ([1]; i.p. 30 min before formalin, Automated Nociception Analyser, phase 2, n=6) | ED50 ([1]; licking and biting episodes in phase IIa of the formalin test (FIG. 7), read-out: ED50 (dose where the pain score is reduced by half)) [mg/kg] | formalin-induced pain behavior (FIGS. 6A, 6B) ([1]; manual scoring, overall pain behaviour and licking/biting, n=6) |
| --- | --- | --- | --- | --- | --- |
| < 10 | – | COc1ccc(C(=O)CN2CCN(c3cc(C)nc4ccccc34)CC2)cc1 [Compound A, 1-(4-methoxy-phenyl)-2-[4-(2-methyl-quinolin-4-yl)-piperazin-1-yl]-ethanone] | able to reduce the total pain score behavior; also recorded: dose-dependent reduction of the pain intensity | – | – |
| > 10 | 5 to 15 | Cc1cc(OC2CCN(Cc3ccccc3)CC2)c2ccccc2n1 [Compound R, 4-(1-benzyl-piperidin-4-yloxy)-2-methyl-quinoline] | – | ~50 | dose-dependent effect; also recorded: dose-dependent reduction of the pain behavior |
